Like-named read-outs stand apart in the source and are kept apart here. Where a SMILES comes first, the peptide text is derived from it. [ ]: non-standard residue; d: D form. The star is where a group is joined. Ala(cPent) = N[C@@H](CC1CCCC1)C(=O)O; Benzoyl(4-OMe) = COc1ccc(C(=O)*)cc1
Target: T1, APC (303–739) (Homo sapiens, UniProt P25054)
T1 sequence (P25054 303-739): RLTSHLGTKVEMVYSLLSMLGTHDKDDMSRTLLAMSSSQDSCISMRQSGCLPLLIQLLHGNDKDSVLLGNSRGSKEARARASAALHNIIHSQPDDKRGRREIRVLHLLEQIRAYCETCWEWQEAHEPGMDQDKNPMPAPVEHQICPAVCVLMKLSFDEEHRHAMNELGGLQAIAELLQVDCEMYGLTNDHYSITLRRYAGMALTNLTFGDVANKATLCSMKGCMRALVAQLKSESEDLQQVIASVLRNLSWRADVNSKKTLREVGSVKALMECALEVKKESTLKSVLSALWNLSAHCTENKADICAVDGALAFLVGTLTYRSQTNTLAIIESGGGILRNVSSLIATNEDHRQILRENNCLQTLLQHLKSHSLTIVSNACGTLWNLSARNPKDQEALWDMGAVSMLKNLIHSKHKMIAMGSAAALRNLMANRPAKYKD
Test: FP competitive assay using tracer 7
Format: binding
Conditions: for IC50: tracer 7
Method in brief: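 Fluorescence polarization competition: APC (303–739) in 50 mM HEPES pH 7.5, 300 mM NaCl, 1 mM EDTA, 1 mM DTT, preincubated 1 h at room temperature with serially diluted peptides. FITC tracer 7 then added (400 nM stock) and FP read after 1.5 h at room temperature; IC50 by nonlinear regression, triplicates.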

[1] = Conc. 4 μM, individual repeats, Fig3b

inhibition at 0.001 µM (Conc. 0.001 μM, individual repeats, Fig3b, read-out: %inhibition): 1.6% | %inhibition (Conc. 0.002 μM, individual repeats, Fig3b): 2.6% | inhibition at 0.002 µM (Conc. 0.002 μM, individual repeats, Fig3b, read-out: %inhibition): 2.9% | %inhibition (Conc. 0.0039 μM, individual repeats, Fig3b): 5.4% | inhibition at 0.0039 µM (Conc. 0.0039 μM, individual repeats, Fig3b, read-out: %inhibition): 4.1% | inhibition at 0.006 µM (Conc. 0.006 μM, individual repeats, Fig3b, read-out: %inhibition): 4.4% | %inhibition (Conc. 0.0078 μM, individual repeats, Fig3b): 13.3% | inhibition at 0.0078 µM (Conc. 0.0078 μM, individual repeats, Fig3b, read-out: %inhibition): 8.8% | inhibition at 0.012 µM (Conc. 0.012 μM, individual repeats, Fig3b, read-out: %inhibition): 16.9% | %inhibition (Conc. 0.0156 μM, individual repeats, Fig3b): 35% | inhibition at 0.0156 µM (Conc. 0.0156 μM, individual repeats, Fig3b, read-out: %inhibition): 24% | inhibition at 0.024 µM (Conc. 0.024 μM, individual repeats, Fig3b, read-out: %inhibition): 38.4% | %inhibition (Conc. 0.0313 μM, individual repeats, Fig3b): 59% | inhibition at 0.0313 µM (Conc. 0.0313 μM, individual repeats, Fig3b, read-out: %inhibition): 51.7% | inhibition at 0.049 µM (Conc. 0.049 μM, individual repeats, Fig3b, read-out: %inhibition): 60.2% | %inhibition (Conc. 0.0625 μM, individual repeats, Fig3b): 74.1% | inhibition at 0.0625 µM (Conc. 0.0625 μM, individual repeats, Fig3b, read-out: %inhibition): 71.7% | inhibition at 0.098 µM (Conc. 0.098 μM, individual repeats, Fig3b, read-out: %inhibition): 77.7% | %inhibition (Conc. 0.125 μM, individual repeats, Fig3b): 86.1% | inhibition at 0.125 µM (Conc. 0.125 μM, individual repeats, Fig3b, read-out: %inhibition): 85.5% | inhibition at 0.195 µM (Conc. 0.195 μM, individual repeats, Fig3b, read-out: %inhibition): 89% | %inhibition (Conc. 0.25 μM, individual repeats, Fig3b): 91.7% | inhibition at 0.25 µM (Conc. 0.25 μM, individual repeats, Fig3b, read-out: %inhibition): 92.8% | inhibition at 0.391 µM (Conc. 0.391 μM, individual repeats, Fig3b, read-out: %inhibition): 94.2% | %inhibition (Conc. 0.5 μM, individual repeats, Fig3b): 95.8% | inhibition at 0.5 µM (Conc. 0.5 μM, individual repeats, Fig3b, read-out: %inhibition): 96.7% | inhibition at 0.781 µM (Conc. 0.781 μM, individual repeats, Fig3b, read-out: %inhibition): 97.3% | %inhibition (Conc. 1 μM, individual repeats, Fig3b): 97.7% | inhibition at 1 µM (Conc. 1 μM, individual repeats, Fig3b, read-out: %inhibition): 98.4% | inhibition at 1.563 µM (Conc. 1.563 μM, individual repeats, Fig3b, read-out: %inhibition): 98.1% | inhibition at 2 µM (Conc. 2 μM, individual repeats, Fig3b, read-out: %inhibition): 99.3% | inhibition at 3.125 µM (Conc. 3.125 μM, individual repeats, Fig3b, read-out: %inhibition): 98.9% | %inhibition [1]: 98.8% | inhibition at 4 µM [1]: 99% | inhibition at 6.25 µM (Conc. 6.25 μM, individual repeats, Fig3b, read-out: %inhibition): 99.5% | inhibition at 8 µM (Conc. 8 μM, individual repeats, Fig3b): 99% | inhibition at 12.5 µM (Conc. 12.5 μM, individual repeats, Fig3b, read-out: %inhibition): 97.6% | inhibition at 25 µM (Conc. 25 μM, individual repeats, Fig3b, read-out: %inhibition): 97.6% | inhibition at 50 µM (Conc. 50 μM, individual repeats, Fig3b, read-out: %inhibition): 97.6% | mean (FP signal, FigS5) (Repeat 1, Conc. 0.006 μM): 284.3 | mean (FP signal, FigS5) (Repeat 1, Conc. 0.012 μM): 253.5 | mean (FP signal, FigS5) (Repeat 1, Conc. 0.024 μM): 200.3 | mean (FP signal, FigS5) (Repeat 1, Conc. 0.049 μM): 146.3 | mean (FP signal, FigS5) (Repeat 1, Conc. 0.098 μM): 103 | mean (FP signal, FigS5) (Repeat 1, Conc. 0.195 μM): 75 | mean (FP signal, FigS5) (Repeat 1, Conc. 0.391 μM): 62 | mean (FP signal, FigS5) (Repeat 1, Conc. 0.781 μM): 54.3 | mean (FP signal, FigS5) (Repeat 1, Conc. 1.563 μM): 52.3 | mean (FP signal, FigS5) (Repeat 1, Conc. 3.125 μM): 50.3 | mean (FP signal, FigS5) (Repeat 1, Conc. 6.25 μM): 49 | mean (FP signal, FigS5) (Repeat 1, Conc. 12.5 μM): 53.7 | mean (FP signal, FigS5) (Repeat 1, Conc. 25 μM): 53.7 | mean (FP signal, FigS5) (Repeat 1, Conc. 50 μM): 53.7 | mean (FP signal, FigS5) (Repeat 2, Conc. 0.001 μM): 301 | mean (FP signal, FigS5) (Repeat 2, Conc. 0.002 μM): 297.7 | mean (FP signal, FigS5) (Repeat 2, Conc. 0.0039 μM): 294.7 | mean (FP signal, FigS5) (Repeat 2, Conc. 0.0078 μM): 282.7 | mean (FP signal, FigS5) (Repeat 2, Conc. 0.0156 μM): 244 | mean (FP signal, FigS5) (Repeat 2, Conc. 0.0313 μM): 173.3 | mean (FP signal, FigS5) (Repeat 2, Conc. 0.0625 μM): 122.3 | mean (FP signal, FigS5) (Repeat 2, Conc. 0.125 μM): 87.3 | mean (FP signal, FigS5) (Repeat 2, Conc. 0.25 μM): 68.7 | mean (FP signal, FigS5) (Repeat 2, Conc. 0.5 μM): 58.7 | mean (FP signal, FigS5) (Repeat 2, Conc. 1 μM): 54.3 | mean (FP signal, FigS5) (Repeat 2, Conc. 2 μM): 52 | mean (FP signal, FigS5) (Repeat 2, Conc. 4 μM): 53 | mean (FP signal, FigS5) (Repeat 2, Conc. 8 μM): 53 | mean (FP signal, FigS5) (Repeat 3, Conc. 0.001 μM): 292.7 | mean (FP signal, FigS5) (Repeat 3, Conc. 0.002 μM): 290.3 | mean (FP signal, FigS5) (Repeat 3, Conc. 0.0039 μM): 283.3 | mean (FP signal, FigS5) (Repeat 3, Conc. 0.0078 μM): 264 | mean (FP signal, FigS5) (Repeat 3, Conc. 0.0156 μM): 211 | mean (FP signal, FigS5) (Repeat 3, Conc. 0.0313 μM): 152 | mean (FP signal, FigS5) (Repeat 3, Conc. 0.0625 μM): 115 | mean (FP signal, FigS5) (Repeat 3, Conc. 0.125 μM): 85.7 | mean (FP signal, FigS5) (Repeat 3, Conc. 0.25 μM): 72 | mean (FP signal, FigS5) (Repeat 3, Conc. 0.5 μM): 62 | mean (FP signal, FigS5) (Repeat 3, Conc. 1 μM): 57.3 | mean (FP signal, FigS5) (Repeat 3, Conc. 2 μM): 56.3 | mean (FP signal, FigS5) (Repeat 3, Conc. 4 μM): 54.7 | mean (FP signal, FigS5) (Repeat 3, Conc. 8 μM): 53.3 | IC50 (mean of three repeats, read-out: IC50 mean): 25.1 nM | IC50 (read-out: IC50 Repeat 1): 23 nM | IC50 (read-out: IC50 Repeat 2): 29.6 nM | IC50 (read-out: IC50 Repeat 3): 22.7 nM
Compound: COc1ccc(C(=O)N[C@@H](C)C(=O)NCC(=O)N[C@@H](CCC(=O)O)C(=O)N[C@@H](CO)C(=O)N[C@@H](CC2CCCC2)C(=O)N[C@@H](Cc2ccc(O)cc2)C(=O)N[C@@H](CCC(=O)O)C(N)=O)cc1 [MAI-519] ({Benzoyl(4-OMe)}-AGES[Ala(cPent)]YE-NH2)

— publication PMC9402538, “Rational design of a sensitivity-enhanced tracer for discovering efficient APC–Asef inhibitors” (Nature Communications, 2022)
